The results in this text go back to patent publication US6974806B2, “Lipid-rich plaque inhibitors” (Takeda Pharmaceutical Company Limited, priority 2000, dated 2005).

For data set [1], the system named is male apo-lipoprotein E deficient mouse. In words: Experiment 3: plaque regression, % lesion area and aortic cholesteryl ester content in apoE KO mouse. Type of data set: in vivo. The note with it: arteriosclerotic diet 8 weeks. How it is done: (§1) [Results] The lesion (plaque) area based on the vascular internal surface area was 31% in the group fed only the normal diet after 9th week. […] Experiment 2 [Method] […] Subsequently, from the 9th week to the 12th week, Compound B (0.5% methyl cellulose suspension: at 30 mg/kg/day) was administered orally, during the period only CE-2 powder, which is a normal diet, was given. The control group was maintained with only CE-2 diet. Each animal was sacrificed by decapitation 12 weeks after initiation of the experiment, the vessel from the aortic arch to the femoral bifurcation was isolated and opened in the direction of the vascular axis, stained with oil red O (Sigma Aldrich Japan), and subjected to an image analysis similarly to Experiment 1 to calculate the % lesion area based on the entire vascular internal wall area. The vessel specimen after the image analysis was homogenized in saline, and the amount of cholesteryl ester content in the aorta was measured in accordance with the method by Hara and Radin (Lipid Extract of tissues with a low-Toxicity solvent, Anal. Biochem., 90:420-426, 1978), that is, from the aorta stained with the oil red O was extracted the lipid by a glass homogenizer with hexane:isopropyl alcohol (3:2) and centrifuged. Subsequently, the supernatant was recovered and evaporated to dryness, and then dissolved in TESIT: dioxane (1:1). From this solution, its total cholesterol content (Cholesterol C test, WAKO) and the free cholesterol content (Free Cholesterol C test, WAKO) were examined. The data obtained were corrected for the wet weight of the aorta. The cholesteryl ester content (CE) was obtained by subtracting the free cholesterol content from the total cholesterol content. Since the sample, which was extracted with hexane:isopropyl alcohol and then evaporated to dryness, contained the oil red O which interferes with the absorption wavelength for the cholesterol measurement, the cholesterol content was calculated for each sample by subtracting the blank level (absorbance of oil red O in sample). [Results]
[Method] […] The control group was maintained with only CE-2 diet. Each animal was sacrificed by decapitation 12 weeks after initiation of the experiment, the vessel from the aortic arch to the femoral bifurcation was isolated and opened in the direction of the vascular axis, stained with oil red O (Sigma Aldrich Japan), and subjected to an image analysis similarly to Experiment 1 to calculate the % lesion area based on the entire vascular internal wall area. The vessel specimen after the image analysis was homogenized in saline, and the amount of cholesteryl ester content in the aorta was measured by an enzymatic method similarly to Experiment 2 described above. [Results]

For data set [2] the test system is unchanged. In words: Experiment 2: plaque regression, % lesion area and aortic cholesteryl ester content in apoE KO mouse. It counts as in vivo. The note with it: arteriosclerotic diet 8 weeks, then normal diet with 30 mg/kg/day oral for 4 weeks. How it is done:
as §1

Data set [3] shares this test system. As to the kind of experiment: Experiment 1: plaque regression, % lesion area of aorta (oil red O) in apoE deficient mouse. The settings on record: arteriosclerotic diet 8 weeks, then 27 mg/kg/day mixed with normal diet, 9th to 12th week, control 31%, p<0.01. Type of data set: in vivo. An excerpt:
[Method] […] Subsequently, each of only CE-2 powder, which is a normal diet, (control group, number of animals=8) and CE-2 powder supplemented with Compound A (number of animals=8) was given ad libitum during the period from the 9th week to the 12th week. Each animal was sacrificed by decapitation 12 weeks after initiation of the experiment, the vessel from the aortic arch to the femoral bifurcation was isolated and opened in the direction of the vascular axis, stained with oil red O (Sigma Aldrich Japan), photographed closely using a medical Nikkor (NIKON), and the photograph was scanned using a scanner (GT-6000, EPSON) and the image was processed using Adobe Photoshop. Thus, the image of the vessel was trimmed and the red color was extracted and modified into a two-tone gradation.
The two-tone image was subjected to an NIH image (National Institute of Health) to count pixels, whereby calculating the % lesion area based on the entire surface area of the internal wall of the vessel.

In the case of “N-(2,6-dimethoxyphenyl)-N′-[3-(2-methylphenyl)-6,7-dihydro-5H-indeno[5,6-b]furan-2-yl]urea [Compound B]”, the “aortic cholesteryl ester content” value in data set [1] (apoE KO mouse, then normal diet with 10 mg/kg/day oral (b869 says) for 4 weeks, n = 10) came to 5.30 ± 0.37 µg/mg. Moreover, in data set [1] (apoE KO mouse, then normal diet with 10 mg/kg/day oral (b869 says) for 4 weeks, n = 10, P < 0.05% (Dunnett's test)), the “% lesion area” value is 23.3 ± 1.8 %.

As for `COc1cccc(OC)c1NC(=O)Nc1oc2cc3c(cc2c1-c1ccccc1C)CCC3` [Compound B, N-(2,6-dimethoxyphenyl)-N′-[3-(2-methylphenyl)-6,7-dihydro-5H-indeno[5,6-b]furan-2-yl]urea], the aortic cholesteryl ester content turned out to be 4.76 µg/mg in data set [2] (apoE KO mice, control 9.42) and 4.76 ± 0.46 µg/mg in data set [2] (apoE KO mouse, n = 4, P < 0.05% (Dunnett's test)). The “% lesion area” value is 16.9% in data set [2] (apoE KO mice, control 22.6%) and 16.9 ± 1.6% in data set [2] (apoE KO mouse, n = 4).

Regarding `COc1cccc(OC)c1NC(=O)Cc1c(-c2ccccc2C)c2cc(Cl)ccc2oc1=O` [Compound A, 2-[6-chloro-2-oxo-4-(2-methylphenyl)-2H-chromen-3-yl]-N-(2,6-dimethoxyphenyl)acetamide], the “lesion (plaque) area based on the vascular internal surface area” value in data set [3] was 15%.

On to `O=C(Cc1c(-c2ccccc2)c2cc3c(cc2oc1=O)C(=O)CC3)Nc1ccc(F)cc1C(F)(F)F` [Example 88, 2-(2,8-dioxo-4-phenyl-2,6,7,8-tetrahydrocyclopenta[g]chromen-3-yl)-N-[4-fluoro-2-(trifluoromethyl)phenyl]-acetamide], for which the melting point is 180 to 183 °C.

On to `Cc1cc2oc(=O)c(CC(=O)Nc3c(C(C)C)cccc3C(C)C)c(-c3ccccc3)c2cc1C` [Example 31], for which the melting point lay in the range of 252 to 253 °C.

As to `COc1cccc(OC)c1NC(=O)Cc1c(-c2ccccc2)c2cc(COC(C)=O)c(Cl)cc2oc1=O` [Example 80, [7-chloro-3-{2-(2,6-dimethoxyanilino)-2-oxoethyl}-2-oxo-4-phenyl-2H-chromen-6-yl]methyl acetate], the melting point fell in the range of 229 to 231 °C.

For `CCN(CC)Cc1cc2c(-c3ccccc3)c(CC(=O)Nc3ccc(Cl)cc3C(F)(F)F)c(=O)oc2cc1Cl` [Example 182], the melting point lay in the range of 163 to 164 °C.

In turn, `CC(C)c1cccc(C(C)C)c1NC(=O)Cc1c(-c2ccccc2)c2cc(Cl)c(Cl)cc2oc1=O` [Example 39] registered a melting point of 289 to 290 °C.

`O=C(Cc1c(-c2ccccc2)c2cc3c(cc2oc1=O)C(=O)CC3)Nc1ccc(Cl)cc1C(F)(F)F` [Example 89] came in with a melting point of 189 to 192 °C.

Turning to `CCOc1cccc(OCC)c1NC(=O)Cc1c(-c2ccccc2)c2cc(C)c(C)cc2oc1=O` [Example 29], the melting point was 230 to 231 °C.

For the molecule `COc1cccc(OC)c1NC(=O)Cc1c(-c2ccccc2)c2cc(CN3CCOCC3)c(Cl)cc2oc1=O` [Example 71], the melting point lay in the range of 209 to 211 °C.

`CC(C)c1cccc(C(C)C)c1NC(=O)Cc1c(-c2ccccc2)c2cc3c(cc2oc1=O)CCC3` [Example 3] gave a melting point of 261 to 263 °C.

On to `CCOc1cccc(OCC)c1NC(=O)Cc1c(-c2ccccc2)c2cc(Cl)c(C)cc2oc1=O` [Example 24], for which the melting point fell in the range of 235 to 236 °C.

`O=C(Cc1c(-c2ccccc2)c2cc3c(cc2oc1=O)CCC3)Nc1ccccc1OC(F)(F)F` [Example 12] returned a melting point of 191 to 194 °C.

In turn, `COc1cccc(O)c1NC(=O)Cc1c(-c2ccccc2)c2cc3c(cc2oc1=O)CCC3` [Example 9] came in with a melting point of 179 to 181 °C.

On to `COc1cccc(OC)c1NC(=O)Cc1c(-c2ccccc2)c2cc(C)c(Cl)cc2oc1=O` [Example 45], for which the melting point fell in the range of 247 to 249 °C.

With `COc1cc(C)cc(OC)c1NC(=O)Cc1c(-c2ccccc2)c2cc3c(cc2oc1=O)CCC3` [Example 8], the melting point was in the range of 237 to 239 °C.

Molecule `O=C(Cc1c(-c2ccccc2)c2cc3c(cc2oc1=O)CCC3)Nc1ccc(Cl)cc1OC(F)(F)F` [Example 19] showed a melting point of 189 to 191 °C.

The molecule `O=C(Cc1c(-c2ccccc2)c2cc3c(cc2oc1=O)CCC3)Nc1ccc(Cl)cc1C(F)(F)F` [Compound C, N-(4-chloro-2-trifluoromethylphenyl)-2-(2-oxo-4-phenyl-2,6,7,8-tetrahydrocyclopenta[g]chromen-3-yl)acetamide] came in with a melting point of 198 to 200 °C. Moreover, in data set [1] (apoE KO mice, then normal diet oral for 4 weeks (method: 10 mg/kg/day), control 6.83), the aortic cholesteryl ester content came out at 5.3 µg/mg. In data set [1] (apoE KO mice, then normal diet oral for 4 weeks (method: 10 mg/kg/day), control 31.2%), the “% lesion area” value is listed as 23.3%.

`CNCc1cc2c(-c3ccccc3)c(CC(=O)Nc3ccc(Cl)cc3C(F)(F)F)c(=O)oc2cc1Cl` [Example 180, 2-[6-[(methylamino)methyl]-7-chloro-2-oxo-4-phenyl-2H-chromen-3-yl]-N-[4-chloro-2-(trifluoromethyl)phenyl]acetamide] gave a melting point of 205 to 207 °C.

Molecule `O=C(Cc1c(-c2ccccc2)c2cc(CN3CCN(c4ncccn4)CC3)c(Cl)cc2oc1=O)Nc1ccc(Cl)cc1C(F)(F)F` [Example 272] displayed a melting point of 214 to 217 °C.

`CC(C)c1cccc(C(C)C)c1NC(=O)Cc1c(-c2ccccc2)c2cc(F)c(F)cc2oc1=O` [Example 42] had a melting point of 255 to 256 °C.
